These results are taken from patent US12691089B2, “Stable levothyroxine compositions in aprotic polar solvents” (Xeris Pharmaceuticals, Inc., priority 2022, dated 2026).

Each structure is given as a SMILES string.

A short description of data set [1]: Accelerated stability of 5 mg/mL levothyroxine in (acidified) DMSO: discoloration and RP-HPLC.
Description: To attempt to overcome these discoloration and degradation problems, levothyroxine solutions were prepared with either the free acid or the sodium salt of levothyroxine dissolved in acidified DMSO, at a levothyroxine sodium concentration of 5 mg/mL. To prepare acidified DMSO solvents, DMSO was acidified with 0-10 mM H2SO4 (from a 1.0 N H2SO4 stock solution), and samples were stored in 2 mL glass vials (0.5 mL fill volume per vial) and stored at 45° C. upright for 9 days for an accelerated stability analysis without any secondary packaging (e.g., foil pouch). Samples were then photographed (to examine discoloration) and examined via reverse phase HPLC (to examine levothyroxine chemical stability), comparing day 0 samples to day 9 samples (vs. a sample of each formulation that was frozen and held at −20° C. as a “time 0” control).
To determine if the discoloration observed with these formulations correlated with levothyroxine chemical degradation, samples of each vial were assessed via reverse phase HPLC (RP-HPLC).
Data set [2] is described as follows: Storage stability of levothyroxine formulations in acidified DMSO (RP-HPLC T4/T3). The class given is physicochemical. The conditions noted are these: 10 mg/mL in DMSO. On the procedure:
Based on the results shown above, formulations of levothyroxine sodium were prepared at an acid concentration that promoted chemical stability and a moisture content of at least 4% (w/w). […] The overall moisture content of the formulation was ~5% when prepared using 1.0 N H2SO4. The moisture content of this formulation was due almost entirely to the added sulfuric acid (with a minor contribution from the trehalose dihydrate), which at 26 mM (from a 1.0 N (0.5 M) stock solution) results in a moisture content~5% (w/w). When prepared using concentrated acid (e.g., 10 N), the overall moisture content of the formulation could be reduced to about ~1% without any significant impact on storage stability.
An example of the stability that can be achieved using this formulation approach at multiple temperatures for up to 6 months is shown in Table 1, which represents the purity of T4 (levothyroxine sodium) in the 10 mg/mL, 26-28 mM acid DMSO formulations described above, over time at various storage temperatures. Results shown are measurements of T4 vs. T3 (triiodothyronine, the main degradation product of T4), determined as described above via RP-HPLC. In this table, the higher the percentage of T4 and the lower the percentage of T3, the less degradation observed in the levothyroxine formulations over time.

Data set [3] is described as follows: Solubility of levothyroxine sodium in DMSO. The format is physicochemical. The conditions noted are these: organic solvent or mixture. An excerpt: However, direct dissolution of levothyroxine sodium in DMSO (with no added excipients) caused rapid visual discoloration and chemical degradation (where the extent of discoloration generally correlates with degradation). […] Additionally, the chemical degradation appeared to be associated with the discoloration of the solution that was observed.

The conditions of data set [4]: cited from earlier work.

In the case of `N[C@@H](Cc1cc(I)c(Oc2cc(I)c(O)c(I)c2)c(I)c1)C(=O)O` [levothyroxine free acid], in data set [1] (5 mg/mL in DMSO, 0-2 mM H2SO4, 9 days at 45° C.), the “degradation by RP-HPLC” value is recorded as “extensive degradation”. Also, the discoloration result in data set [1] (5 mg/mL in DMSO, 0-10 mM H2SO4, day 0) is given as “did not show significant discoloration”. Moreover, the “discoloration compared to levothyroxine sodium salt” value in data set [1] (5 mg/mL in DMSO, all concentrations of acid, 9 days at 45° C.) is on record as “lower amount of discoloration”. The “sulfuric acid concentration necessary to significantly enhance chemical stability” value in data set [1] (5 mg/mL solution in DMSO, accelerated stability testing) is recorded as ~ 10 mM.
For orientation: solubility means how much of the substance goes into solution per volume. Regarding `N[C@@H](Cc1cc(I)c(Oc2cc(I)c(O)c(I)c2)c(I)c1)C(=O)O` [levothyroxine sodium], the “chemical stability (T4 peak purity) vs acid concentration” value in data set [2] (<26 mM sulfuric acid) is “extensive chemical degradation”; in data set [2] (above approximate 26 mM acid), “chemical stability essentially plateaus”. The solubility in data set [3] is at least 30 mg/mL. The discoloration result was “no significant discoloration” in data set [1] (5 mg/mL in DMSO, 10 mM H2SO4, 9 days at 45° C.) and “degradation-associated discoloration fairly quickly” in data set [1] (5 mg/mL in DMSO, H2SO4 below 4 mM, day 0).
For `N[C@@H](Cc1cc(I)c(Oc2cc(I)c(O)c(I)c2)c(I)c1)C(=O)O` [levothyroxine], in data set [4], the solubility in water is recorded as at most 0.1 mg/mL.
